From US20050032121A1, “Method of analyzing data obtained from a biological assay” (Pierce Biotechnology, Inc., priority 2003, published 2005)
pIC50: −log10 of the molar value. Ends that are not written are not given here.

Tests used:
PKC = conditions: literature value, Kuo, J. F. (1994); read-out: Previously Reported IC50; cited from earlier work
[1] = test system: PKC purified from rat brain; assay: IQ Platform PKC/PS inhibitor study (fluorescence quench kinase assay); format: biochemical; conditions: Hill slope of the dose response inhibition curve
Experimental: IQ™ Working Solution was prepared by mixing 9 volumes of IQ™ Reagent A and 1 volume of IQ™ Reagent B prior to use to provide full strength IQ™ WS (1×IQ™ WS). The full-strength working solution was further diluted with water to prepare half-strength or quarter-strength IQ™ working solution. In 96 well assays, 4× reaction volume of quarter-strength was added and in 384 and 1536 well assays, 2× reaction volume of half-strength was added.
Enzymatic assays were conducted at room temperature for 1 hour unless otherwise indicated. Reactions were carried out in microwell plates and initiated by addition of ATP or enzyme. Kinase experiments used PKC purified from rat brain. PKC assays were conducted in a final enzyme reaction mixture consisting of 20 mM HEPES, 1 mM CaCl2, 5 mM MgCl2, 1 mM disodium ATP, 1 mM DTT, 0.2 mg/ml phosphatidyl-L-serine, pH 7.4. […] The amounts of enzyme utilized reflect a common unit definition where 1 mU of enzyme is the amount of enzyme required to transfer 1 pmole phosphate per minute at 30° C.
Peptides were labeled on the N-terminus with a proprietary red fluorescent label. Fluorescence was measured using either a BMG PolarStar™ or BMG Optima™ fluorescent plates readers with a 560/590 excitation/emission filter set for the red-fluorophore label.
Inhibitor studies using the IQ Platform with PKC/PS: IC50 values for known PKC inhibitors were determined using fluorophore-labeled pseudosubstrate peptide as the substrate. Inhibitor studies were carried out in triplicate using 500 μU PKC per μl of final enzyme reaction mixture and 60 μM peptide substrate. Inhibitors, diluted in either aqueous solution for water-soluble inhibitors or in 10% DMSO for water-insoluble inhibitors, were incubated with the enzyme for 20 minutes at room temperature, after which the enzymatic reaction was initiated by addition of ATP at a final concentration of 20 μM. The enzymatic reaction was carried out for 1 hour at room temperature followed by addition of 36 μl of 0.5×IQ WS per well. Fluorescence was then measured and data were analyzed using sigmoidal nonlinear regression.

Molecule | pIC50 (PKC) | Calculated Hillslope Best Fit [1]
Pseudosubstrate PKC Inhibitor Peptide 19-36: known PKC inhibitor peptide; competitive, peptide binding site (RFARKGALRQKNVHEVKD; UniProt P17252 19-36, looked up, fragment) | 6.83 | 1.265
Myristoylated Protein Kinase C Inhibitor 20-28, Cell-Permeable: known PKC inhibitor peptide; competitive, peptide binding site (FARKGALRQ; also: myristoylated (place not given here); UniProt P17252 20-28, looked up, fragment) | 5.10 | 0.9018
CN(C)CCCn1cc(C2=C(c3c[nH]c4ccccc34)C(=O)NC2=O)c2ccccc21 [Bisindolylmaleimide I] | 8.00 | 1.160
Calphostin C | 7.30 | 1.675
Pseudosubstrate PKC Inhibitor Peptide 19-31: known PKC inhibitor peptide; competitive, peptide binding site (RFARKGALRQKNV; UniProt P17252 19-31, looked up, fragment) | 7.00 | 0.8462
CN[C@@H]1C[C@H]2O[C@@](C)([C@@H]1OC)n1c3ccccc3c3c4c(c5c6ccccc6n2c5c31)C(=O)NC4 [Staurosporine] | […] | 1.225
